“Also recorded” adds a separate entry of the source.
Key:
RKO (colon cancer) cells = assay: LC3 western blotting (autophagy); type: cell-based; details: 1 μM
[1] = tested on: Human Glioblastoma multiforme cells (T98G, G22VF, U251) and human medulloblastoma cells (p16, p9); assay: Cell viability by cell titer-Glo luminescence (ATP level) assay; type: cell-based; details: 72 hours, various concentrations
Experimental: Human Glioblastoma multiforme cells (T98G, G22VF, U251) and human medulloblastoma cells (p16, p9) were incubated with various concentrations of Example 1 for 72 hours, and then cell viability assessed by cell titer-Glo luminescence (ATP level) assay.
Methods: Example 1 was dissolved into DMSO (ATCC) at a concentration of 40 mM, this stock was further diluted to 2× the highest final working concentration into complete medium consisting of DMEM (Life Technologies), penicillin/streptomycin antibiotic solution (Life Technologies), and 10% FBS (Seradigm). This stock was dispensed into the final column of a white-walled, flat-bottomed 96-well plate (Corning). Serial dilutions (1.5× or 2× depending on the assay) were then made using complete medium down to the lowest assayed concentration of Example 1. The final column of the 96-well plate was saved as a vehicle-only control and included DMSO diluted 1:250 in complete medium. […]
These plates were placed in a 5% CO2, 37° C. incubator. After 72 hrs of incubation, relative ATP content was measured as an indirect indication of the number of viable cells per well. […] This reaction was protected from light and incubated for 10 min at room temperature, then total luminescence was read using a Synergy H1 microplate reader (Biotek).
Raw luminescence numbers or relative ATP concentration (reported as a percentage of the vehicle-treated control) are show. […]

468 kinases = assay: Kinase selectivity panel (Treespot dendrogram); type: binding; details: for number of kinases blocked to 1% activity level / number of kinases blocked to 10% activity level / number of kinases blocked to 35% activity level: 5000 nM; for selectivity for PIKfyve: comparison of Example 1, Example 3 and apilimod
Experimental: In contrast, 50 nM Apilimod inhibited two kinases to 1% or 10%, and 3 kinases to 35% of control. To examine non-specific binding at higher concentrations, Example 1, Example 3, and Apilimod were tested at 5000 nM. […] PIKfyve is represented at the bottom left of each dendrogram.

U251 glioblastoma cell = assay: Cell killing in combination with vemurafenib; type: cell-based, human
Experimental: A 25 mM stock of vemurafenib (obtained from Selleckchem) in DMSO was diluted to 2× the indicated concentration into the cell suspension immediately prior to plating the cell suspension onto the pre-diluted Example 1 or Example 3, to result in a final 1× concentration of both compounds.
See FIG. 13 for showing of U251 glioblastoma cell killing by Example 1 alone or in the presence of 10 μM vemurafenib over a 72 hour time course.

[2] = tested on: Murine lymphoma cells (E2409, EC+F); assay: Killing of murine lymphoma cells, 48 hour assay; type: cell-based
Experimental: All experiments in FIG. 6 were performed using RPMI media (Life Technologies) was used as the base formulation and culture medium also contained 1 mM Sodium Pyruvate, 100 mM HEPES, 2 mM additional L-Glutamine, 55 uM 2-mercaptoethanol, and 1×MEM NEAA Solution (all from Life Technologies). Trypsin was not necessary for these non-adherent cells. Presto Blue reagent (Life Technologies) was used as an endpoint assay using the same procedure described in previously for Alamar Blue, with a 30 minute incubation time.

U251 glioblastoma cells = assay: LC3 / p62 western blotting (autophagy); type: cell-based, human
Experimental: Macroautophagy (hereafter “autophagy”) is a process that requires precise fusion of endosomes, autophagosomes, and lysosomes. Lysates from cells treated with Example 1 were prepared and probed by western blotting for LC3-I and LC3-II. Increased levels of LC3-II and increased p62 (sequestesome) were found showing the increased drive to undergo autophagy, in the face of inability to complete the process (i.e. ineffective autophagy). Lysosomes are the final destination of proteins destined for degradation by autophagy, and proteolysis in this organelle depends upon cathepsins among other enzymes.
FIG. 23 contains images showing induction of autophagy the Example 1 as evidenced by accumulation of LC3 over time. U251 glioblastoma cells were treated with 25, 500, or 20,000 nM MC042 for the indicated time periods, and then lysates prepared and blotted for LC3 and tubulin (loading control). Starting a t 6 hours, and becoming more evident by 24 hours, LC3-II (the lower band marked LC3) accumulated, indicating activation of autophagy.

murine lymphoma cells = assay: Vacuolization seen by light microscopy; type: cell-based
Experimental: Vacuolization due to treatment with Example 1 compound was extremely rapid, becoming visible by light microscopy within 30 minutes or less.

cells in culture = assay: Vacuolization activity in cells in culture; type: cell-based
Excerpt: As used herein the term “EC50 (μM)” refers to the μM concentration of a compound that is required for 50% activity in a vacuolization assay.
Example 2 is a biotinylated derivative of the compound of Example 1.

[3] = tested on: MPNST cells lines (S462, S462TY, 26T, T265, SNF96.2); assay: Cytotoxicity against MPNST cell lines; details: DMEM-based medium
Excerpt: For this reason, it was hypothesized that tumor cells that have activated RAS would have increased sensitivity to this compound. Malignant peripheral nerve sheath tumors (MPNSTs) arise in the population sporadically, and with very high frequency in patients with NF1 mutation. NF1 is a RAS suppressor, and therefore, tumors arising in the NF1-mutant background, have apriori activation of the RAS signaling pathway.

| Structure (SMILES) | induction of LC3 (RKO (colon cancer) cells) | cell viability (ATP level) [1] | number of kinases blocked to 1% of control (468 kinases; 50 nM, 468 kinases) | number of kinases blocked to 10% of control (468 kinases; 50 nM, 468 kinases) | number of kinases blocked to 35% of control (468 kinases; 50 nM, 468 kinases) | number of kinases blocked to 1% activity level (468 kinases) | number of kinases blocked to 10% activity level (468 kinases) | number of kinases blocked to 35% activity level (468 kinases) | selectivity for PIKfyve (468 kinases) | cell killing on addition of vemurafenib (U251 glioblastoma cell; low concentrations of Example 1 (e.g., 0.5 μM) + 10 μM vemurafenib, 72 hour) | cell killing [2] | induction of LC3 (U251 glioblastoma cells; 1 μM) | p62 degradation (U251 glioblastoma cells; 25, 500, or 20,000 nM) | LC3-II level (U251 glioblastoma cells; 25, 500, or 20,000 nM, starting at 6 hours, more evident by 24 hours) | time until vacuolization visible by light microscopy (murine lymphoma cells) | EC50 (cells in culture) | killing U251 in combination with vemurafenib (U251 glioblastoma cell) | sensitivity to compound-induced death [3] |
| --- | --- | --- | --- | --- | --- | --- | --- | --- | --- | --- | --- | --- | --- | --- | --- | --- | --- | --- |
| Cc1ccc(Nc2nc(N/N=C/c3c[nH]c4ccccc34)nc(N3CCOCC3)n2)cc1 [Example 1, (E)-4-(2-((1H-indol-3-yl)methylene)hydrazinyl)-6-morpholino-N-(p-tolyl)-1,3,5-triazin-2-amine] | dramatic and rapid induction | killed effectively | 1 | did not block other kinases | did not block other kinases | 2 | 4 | 11 | more selective | significantly improves cell killing | killed by relatively low concentrations | less robust | not degraded | accumulated | ≤ 30 min |  |  |  |
| Cc1ccc(Nc2nc(N/N=C/c3c[nH]c4ccccc34)cc(N3CCOCC3)n2)cc1 [Example 3, (E)-4-(2-((1H-indol-3-yl)methylene)hydrazinyl)-6-morpholino-N-(p-tolyl)pyrimidin-2-amine] |  |  |  |  |  | 1 | 1 | 4 | more selective; also recorded: highest selectivity |  |  |  |  |  |  | 4 nM | synergistic | highly sensitive |
